# According to patent publication US9243068B2, “Combination of SEMA-4D inhibitors and immunomodulators to inhibit tumors and metastases” (Vaccinex, Inc., priority 2013, dated 2016):
# Tested on: Colon26 tumor cells
# Test: Colon26 tumor growth, combination with cyclophosphamide (Example 8)
# Assay type: in vivo
# Settings: Colon26 in Balb/c mice; anti-SEMA4D 50 mg/kg IP weekly; cyclophosphamide 50 mg/kg IP days 12 and 20
# Description: Experimental Design. 5×10^5 Colon26 tumor cells were implanted subcutaneously into the flank of female Balb/c mice. […] There were 20 mice per group. Tumors were measured with calipers 3×/week starting 5 days post implant. Animals were sacrificed when tumor volume reached 1000 mm^3.
# Tumor growth was measured by calipers and measurements were used to calculate tumor volume using the formula (w^2×I)/2, where w=width, smaller measurement, and l=length, in mm, of the tumor.
# Regression is the lack of palpable tumor, defined by a tumor measuring <50 mm^3 for at least two consecutive measurements.
compound,measurement,value
O=P1(N(CCCl)CCCl)NCCCO1 (stereo not shown) [cyclophosphamide],Tumor Growth Delay (TGD),96%
